Columns and labels:
Conditions in all cases: 72 h
HepG2 [1] = assay: drug sensitivity score (DSS) for viability; higher = more toxic; extreme values may be limits of the assay
U2OS [2] = assay: as above
Vero E6 [3] = assay: as above
Caco-2 [4] = assay: as above
Calu-3 [5] = assay: as above
HepG2 [6] = assay: cell viability relative to DMSO; higher = less toxic
U2OS [7] = assay: as above
Vero E6 [8] = assay: as above
Caco-2 [9] = assay: as above
Calu-3 [10] = assay: as above
HepG2 [11] = assay: relative viability EC50 (midpoint between 100% and the lowest measured viability); higher = less toxic
U2OS [12] = assay: as above
Vero E6 [13] = assay: as above
Caco-2 [14] = assay: as above
Calu-3 [15] = assay: as above

Structure (SMILES) | drug sensitivity score (HepG2 [1]) | drug sensitivity score (U2OS [2]) | drug sensitivity score (Vero E6 [3]) | drug sensitivity score (Caco-2 [4]) | drug sensitivity score (Calu-3 [5]) | cell viability (HepG2 [6]; 1 nM) | cell viability (HepG2 [6]; 10 nM) | cell viability (HepG2 [6]; 100 nM) | cell viability (HepG2 [6]; 1000 nM) | cell viability (HepG2 [6]; 10000 nM) | cell viability (U2OS [7]; 1 nM) | cell viability (U2OS [7]; 10 nM) | cell viability (U2OS [7]; 100 nM) | cell viability (U2OS [7]; 1000 nM) | cell viability (U2OS [7]; 10000 nM) | cell viability (Vero E6 [8]; 1 nM) | cell viability (Vero E6 [8]; 10 nM) | cell viability (Vero E6 [8]; 100 nM) | cell viability (Vero E6 [8]; 1000 nM) | cell viability (Vero E6 [8]; 10000 nM) | cell viability (Caco-2 [9]; 1 nM) | cell viability (Caco-2 [9]; 10 nM) | cell viability (Caco-2 [9]; 100 nM) | cell viability (Caco-2 [9]; 1000 nM) | cell viability (Caco-2 [9]; 10000 nM) | cell viability (Calu-3 [10]; 1 nM) | cell viability (Calu-3 [10]; 10 nM) | cell viability (Calu-3 [10]; 100 nM) | cell viability (Calu-3 [10]; 1000 nM) | cell viability (Calu-3 [10]; 10000 nM) | relative viability EC50 (HepG2 [11]) | relative viability EC50 (U2OS [12]) | relative viability EC50 (Vero E6 [13]) | relative viability EC50 (Caco-2 [14]) | relative viability EC50 (Calu-3 [15])
CS(=O)(=O)c1cc(F)cc2c3c(n(Cc4ccc(Cl)cc4)c12)[C@@H](CC(=O)O)CC3 [laropiprant] | 0 | 0 | 0 | 0 | 0 | 99% | 94.2% | 100% | 98.6% | 101% | 100% | 101% | 98.3% | 106% | 97.5% | 102% | 99.6% | 106% | 98.2% | 91.9% | 95.4% | 102% | 91% | 95.4% | 88.5% | 101% | 95.4% | 90.3% | 110% | 94.6% | > 10 µM | > 10 µM | > 10 µM | > 10 µM | > 10 µM
CCCCCCCCCCCC(=O)O [lauric-acid] | 0 | 0 | 0 | 0 | 0 | 105% | 106% | 87.4% | 96% | 94.3% | 102% | 95.3% | 102% | 97.6% | 98.1% | 111% | 113% | 101% | 104% | 93.5% | 94.1% | 102% | 111% | 110% | 98.2% | 102% | 108% | 101% | 100% | 97.5% | > 10 µM | > 10 µM | > 10 µM | > 10 µM | > 10 µM
[NH-]c1c[n+](N2CCOCC2)no1 [linsidomine] | 0 | 0 | 0 | 0 | 0 | 96.9% | 106% | 97.7% | 96.8% | 104% | 105% | 98.8% | 100% | 96.3% | 101% | 98.9% | 99.3% | 95.6% | 100% | 91.1% | 102% | 96.1% | 95.8% | 96.1% | 89.4% | 100% | 96% | 105% | 94.3% | 116% | > 10 µM | > 10 µM | > 10 µM | > 10 µM | > 10 µM
COc1cc(C[C@H](C)[C@H](C)Cc2ccc3c(c2)OCO3)ccc1O [macelignan] | 3.3 | 0 | 0 | 0 | 0 | 98.4% | 103% | 92.1% | 81.1% | 86.3% | 98.5% | 99% | 94% | 101% | 91.5% | 100% | 106% | 98.9% | 95.4% | 101% | 87.3% | 102% | 93.9% | 96.6% | 87.3% | 99.3% | 102% | 102% | 101% | 103% | > 10 µM | > 10 µM | > 10 µM | > 10 µM | > 10 µM
COC(=O)[C@@H](N)CS [mecysteine] | 0 | 0 | 0 | 0 | 0 | 108% | 107% | 99.6% | 91.1% | 105% | 98.2% | 101% | 96.3% | 100% | 95.3% | 95.8% | 97.5% | 98.5% | 88.6% | 101% | 96.1% | 95% | 97.7% | 99.8% | 102% | 104% | 106% | 87.2% | 109% | 99.2% | > 10 µM | > 10 µM | > 10 µM | > 10 µM | > 10 µM
Cc1cc(C)cc(OCC2CNC(=O)O2)c1 (stereo not given) [metaxalone] | 0 | 0 | 0 | 0 | 0 | 92.1% | 99.7% | 87% | 93.2% | 101% | 97.4% | 96.8% | 97.1% | 99.2% | 98.8% | 101% | 103% | 102% | 105% | 97.7% | 100% | 101% | 99.9% | 103% | 105% | 95.6% | 102% | 103% | 100% | 95.4% | > 10 µM | > 10 µM | > 10 µM | > 10 µM | > 10 µM
Cc1cc(=O)[nH]c(=S)[nH]1 [methylthiouracil] | 0 | 0 | 0 | 0 | 0 | 107% | 108% | 95.1% | 95.3% | 105% | 103% | 99% | 98.7% | 97.4% | 97.3% | 101% | 92.6% | 100% | 92.1% | 97.8% | 98.7% | 96.6% | 99.3% | 96.3% | 94.6% | 106% | 109% | 83.8% | 97.7% | 96.6% | > 10 µM | > 10 µM | > 10 µM | > 10 µM | > 10 µM
O=P(O)(O)C(O)(Cc1cnc2ccccn12)P(=O)(O)O [minodronic-acid] | 0 | 0 | 0 | 0 | 0 | 99.2% | 102% | 106% | 85.5% | 101% | 100% | 97.6% | 95.9% | 102% | 102% | 106% | 102% | 98.6% | 100% | 98.1% | 98.1% | 103% | 96.4% | 103% | 98.6% | 98.1% | 95.1% | 104% | 96.5% | 106% | > 10 µM | > 10 µM | > 10 µM | > 10 µM | > 10 µM
Oc1ccc2c3c1O[C@H]1[C@@H](O)CC[C@@]4(O)[C@@H](C2)N(CC2CCC2)CC[C@]314 [nalbuphine] | 0 | 0 | 0 | 0 | 0 | 107% | 99.2% | 110% | 95.9% | 91.4% | 97.7% | 96.5% | 98.2% | 92.4% | 96.9% | 99.9% | 104% | 95.3% | 102% | 96.5% | 102% | 102% | 101% | 88.4% | 98.6% | 103% | 95.2% | 95.9% | 117% | 105% | > 10 µM | > 10 µM | > 10 µM | > 10 µM | > 10 µM
CCOc1cc2ncc(C#N)c(Nc3ccc(OCc4ccccn4)c(Cl)c3)c2cc1NC(=O)/C=C/CN(C)C [neratinib] | 7.5 | 1.8 | 8.7 | 10.3 | 22.8 | 111% | 97.3% | 88.2% | 77.6% | 17.8% | 93.6% | 96.7% | 96.7% | 88% | 75.7% | 104% | 102% | 90.9% | 64.1% | 17.5% | 98.7% | 93.4% | 85.1% | 54.7% | 35% | 93.4% | 69.6% | 43.9% | 34.9% | 33.7% | 1.59 µM | > 10 µM | 1.14 µM | 0.365 µM | 0.0124 µM
CNCCC(Oc1ccccc1OC)c1ccccc1 (stereo not given) [nisoxetine] | 0 | 0 | 0 | 0 | 0 | 113% | 105% | 104% | 108% | 99% | 105% | 98.3% | 102% | 99% | 102% | 107% | 104% | 101% | 103% | 95.6% | 105% | 96.2% | 109% | 98.6% | 107% | 94% | 107% | 98.2% | 109% | 102% | > 10 µM | > 10 µM | > 10 µM | > 10 µM | > 10 µM
CCN(Cc1ccc(Cl)nc1)/C(=C/[N+](=O)[O-])NC [nitenpyram] | 0 | 0 | 0 | 0 | 0 | 104% | 98.7% | 105% | 97.5% | 108% | 99% | 97% | 98% | 100% | 101% | 103% | 104% | 98.1% | 96.9% | 105% | 95.8% | 100% | 95% | 97.5% | 98.3% | 101% | 94% | 93.5% | 104% | 94% | > 10 µM | > 10 µM | > 10 µM | > 10 µM | > 10 µM
CC(=O)O[C@]1(C(C)=O)CC[C@H]2[C@@H]3C=C(C)C4=CC(=O)CC[C@@H]4[C@H]3CC[C@@]21C [nomegestrol-acetate] | 0 | 0 | 0 | 0 | 0 | 103% | 97.1% | 102% | 106% | 110% | 99.8% | 102% | 102% | 103% | 101% | 100% | 96.3% | 99.3% | 98.6% | 111% | 88.5% | 97.3% | 102% | 91.6% | 97.4% | 99% | 94.1% | 87.7% | 106% | 108% | > 10 µM | > 10 µM | > 10 µM | > 10 µM | > 10 µM
NC[C@H](O)c1ccc(O)c(O)c1 [norepinephrine] | 0 | 0 | 0 | 0 | 0 | 102% | 95.3% | 96% | 105% | 106% | 99.4% | 100% | 98.5% | 99.8% | 99.6% | 99.9% | 96.7% | 98.1% | 95% | 98.6% | 88.9% | 95.9% | 101% | 93.2% | 97.5% | 101% | 88.3% | 93.7% | 98.6% | 95.3% | > 10 µM | > 10 µM | > 10 µM | > 10 µM | > 10 µM
